# Measured values: patent publication US20230074200A1 (priority 2021, published 2023)
# Where “and” joins values, the source holds several entries; their conditions need not be identical. Equal values may be shown once. Read-outs that look alike come from different tables or passages of the source.
# Columns and labels:
# [1] = rat, in vivo, sc, 2 mg/kg
# [2] = test system: rats lethally challenged with 110 U/kg BoNT/A (2.5 LD50); settings: rat, in vivo
# [3] = test system: diaphragm motor endplates of BoNT/A intoxicated rats; settings: rat, in vivo
# [4] = rat, in vivo; for behavioral seizure (%) / gait change (%) / max Racine score / mortality (%) / salivation (%): sc
# [5] = rat, in vivo; for behavioral seizure (%) / gait change (%) / max Racine score / mortality (%) / salivation (%): sc; remark: listed apart in the source
# [6] = rat, in vivo
# [7] = test system: rats lethally intoxicated with 2.5 LD50 BoNT/A; settings: rat, in vivo
# BoNT/A-intoxicated mice = settings: mouse, in vivo; cited from earlier work
# [8] = test system: isolated mouse diaphragms poisoned by multiple BoNT serotypes; settings: cited from earlier work
smiles,measurement,setting,value
"Nc1ccncc1N [3,4-DAP, 3,4-diaminopyridine]",VO2,[1],transient increases
same,respiratory rate,[1],transient increases
same,tidal volume,[1],transient increases
same,survival rate at the final injection,[2],100%
same,time to reduction of toxic signs compared to vehicle,[2],≤ 30 min
same,time after cessation of treatment at which toxic signs worsened,[2]; 2 mg/kg,approximately 1.5 h
same,time of death after the final injection,[2]; 2 mg/kg,2 to 4 h
same,mean EPP success rate,[3]; 0.98 mg/kg,75.4±3.5%
same,mean EPP success rate,[3]; 1.44 mg/kg,60.5±5.3% and 79.7±2.5%
same,physiological indicators of acute neurological toxicity,[4]; 2 mg/kg,did not elicit physiological indicators of acute neurological toxicity
same,physiological indicators of acute neurological toxicity,[4]; 8 mg/kg,did not elicit physiological indicators of acute neurological toxicity
same,behavioral seizure (%),[4]; 1 mg/kg,"0, 0%"
same,gait change (%),[4]; 1 mg/kg,0%
same,max Racine score,[4]; 1 mg/kg,"0, 0"
same,mortality (%),[4]; 1 mg/kg,0%
same,salivation (%),[4]; 1 mg/kg,0%
same,behavioral seizure (%),[4]; 2 mg/kg,"0, 0%"
same,gait change (%),[4]; 2 mg/kg,0%
same,max Racine score,[4]; 2 mg/kg,"0, 0"
same,mortality (%),[4]; 2 mg/kg,0%
same,salivation (%),[4]; 2 mg/kg,0%
same,behavioral seizure (%),[4]; 8 mg/kg,"0, 0%"
same,gait change (%),[4]; 8 mg/kg,0%
same,max Racine score,[4]; 8 mg/kg,"0, 0"
same,mortality (%),[4]; 8 mg/kg,0%
same,salivation (%),[4]; 8 mg/kg,0%
same,behavioral seizure (%),[4]; 16 mg/kg,"0, 0%"
same,gait change (%),[4]; 16 mg/kg,50%
same,max Racine score,[4]; 16 mg/kg,"0, 0"
same,mortality (%),[4]; 16 mg/kg,0%
same,salivation (%),[4]; 16 mg/kg,25%
same,behavioral signs of neurological toxicity during infusion,[5],not observed
same,behavioral seizure (%),[5]; 0.36 mg/kg,"0, 0%"
same,gait change (%),[5]; 0.36 mg/kg,0%
same,max Racine score,[5]; 0.36 mg/kg,"0, 0"
same,mortality (%),[5]; 0.36 mg/kg,0%
same,salivation (%),[5]; 0.36 mg/kg,0%
same,behavioral seizure (%),[5]; 0.72 mg/kg,"0, 0%"
same,gait change (%),[5]; 0.72 mg/kg,0%
same,max Racine score,[5]; 0.72 mg/kg,"0, 0"
same,mortality (%),[5]; 0.72 mg/kg,0%
same,salivation (%),[5]; 0.72 mg/kg,0%
same,behavioral seizure (%),[5]; 1.44 mg/kg,"0, 0%"
same,gait change (%),[5]; 1.44 mg/kg,0%
same,max Racine score,[5]; 1.44 mg/kg,"0, 0"
same,mortality (%),[5]; 1.44 mg/kg,0%
same,salivation (%),[5]; 1.44 mg/kg,0%
same,relationship between infusion dose rate and CSS (serum),[6],linearly related to infusion dose
same,functional toxicity or loss of efficacy throughout the infusion period,[7],no evidence of functional toxicity or loss of efficacy
same,symptomatic rebound following cessation of infusion,[7],without symptomatic rebound
same,time by which all rats were deceased following cessation of infusion,[7],≤ 12 h
same,time by which toxic signs resolved,[7],≤ 14 days
same,time by which toxic signs stabilized,[7],≤ 2 days
same,time to worsening of toxic signs following cessation of infusion,[7],3 to 6 h
same,toxic signs compared to vehicle,[7],improved
same,respiratory and skeletal muscle weakness,BoNT/A-intoxicated mice,reversed respiratory and skeletal muscle weakness
same,respiratory function and survival,BoNT/A-intoxicated mice,improve respiratory function and prolong survival
same,muscle paralysis,[8],reverse muscle paralysis
